# Data reported in patent US20200392150A1, “Diaryl-B-Lactam Compound and Preparation Method and Pharmaceutical Use Thereof” (Fudan University, priority 2016, published 2020).
# Where two headings read alike, the source gives them in different places.
# What was measured:
# [1] = test system: MDA-MB-231; experiment: In vitro cell growth inhibition assay (MTT); assay type: cell-based, human; conditions: read-out: IC50 MDA-MB-231
# Procedure, shortened: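 Following overnight adherence of 5000 cells per well, compounds or 0.2% DMSO were applied for 48 h. Medium was then swapped for 0.5 mg/mL MTT medium (4 h, 37° C), crystals dissolved in DMSO, and plates read at 540 nm.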
# [2] = test system: SKOV3; experiment: In vitro cell growth inhibition assay (MTT); assay type: cell-based, human; conditions: read-out: IC50 SKOV3
# Procedure, shortened: (§1)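 SKOV3, A2780 or HeLa cells were seeded at 5000 per well, allowed to adhere overnight, then treated 48 h with compounds; 0.2% DMSO served as control. IC50 values came from growth inhibition rates.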
# [3] = test system: A2780; experiment: In vitro cell growth inhibition assay (MTT); assay type: cell-based, human; conditions: read-out: IC50 A2780
# Procedure, shortened: as §1
# [4] = test system: Hela; experiment: In vitro cell growth inhibition assay (MTT); assay type: cell-based, human; conditions: 48 h, read-out: IC50 Hela
# Procedure, shortened: as §1
# [5] = MDA-MB-231 human breast cancer cell line, 48 h, MTT
# [6] = SK-OV-3, SKOV-3 human ovarian cancer cell line, 48 h, MTT
# [7] = A2780 human ovarian cancer cell line, 48 h, MTT
# [8] = Hela human cervical cancer cell line, MTT
SMILES,melting point,"IC50 [1, 5]","IC50 [2, 6]","IC50 [3, 7]","IC50 [4, 8]","IC50 ([1]; Homo sapiens, MDA-MB-231, 48 h)","IC50 ([2]; Homo sapiens, SK-OV-3, 48 h)","IC50 ([3]; Homo sapiens, A2780, 48 h)","IC50 ([4]; Homo sapiens, HeLa)"
"C=C1C(=O)N(c2cc(OC)c(OC)c(OC)c2)[C@H]1c1ccc(OC)c(OC(C)C)c1 [Compound 5, (S)-4-(3-isopropoxy-4-methoxyphenyl)-3-methylene-1-(3,4,5-trimethoxyphenyl)azetidin-2-one]",146 to 147 °C,15.9 µM,18 µM,11.3 µM,> 20 µM,–,–,–,–
"C=C1C(=O)N(c2cc(OC)c(OC)c(OC)c2)[C@H]1c1ccc(OC)c(OC(=O)c2ccc(F)cc2)c1 [Compound 20, (S)-2-methoxy-5-(3-methylene-4-oxo-1-(3,4,5-trimethoxyphenyl)azetidin-2-yl)phenyl 4-fluorobenzoate]",185 to 186 °C,–,–,–,–,0.223 µM,0.114 µM,0.169 µM,0.075 µM
"C=C1C(=O)N(c2cc(OC)c(OC)c(OC)c2)[C@H]1c1ccc(OC)c(OC(C)=O)c1 [Compound 46, (S)-2-methoxy-5-(3-methylene-4-oxo-1-(3,4,5-trimethoxyphenyl)azetidin-2-yl)phenyl acetate]",122 to 123 °C,0.133 µM,0.104 µM,0.081 µM,0.116 µM,–,–,–,–
"C=C1C(=O)N(c2cc(OC)c(OC)c(OC)c2)[C@H]1c1ccc(OC)c(OC(=O)CNC(=O)OC(C)(C)C)c1 [Compound 34, (S)-2-methoxy-5-(3-methylene-4-oxo-1-(3,4,5-trimethoxyphenyl)azetidin-2-yl)phenyl 2-((tert-butoxycarbonyl)amino)acetate]",88 to 89 °C,0.335 µM,0.264 µM,0.24 µM,0.062 µM,–,–,–,–
"C=C1C(=O)N(c2cc(OC)c(OC)c(OC)c2)[C@H]1c1ccc(OC)c(OCCN2CCOCC2)c1 [Compound 15, (S)-4-(4-methoxy-3-(2-morpholinoethoxy)phenyl)-3-methylene-1-(3,4,5-trimethoxyphenyl)azetidin-2-one]",86 to 87 °C,> 10 µM,> 10 µM,> 10 µM,> 10 µM,–,–,–,–
"C=C1C(=O)N(c2cc(OC)c(OC)c(OC)c2)[C@H]1c1ccc(OC)c(OCC)c1 [Compound 3, (S)-4-(3-ethoxy-4-methoxyphenyl)-3-methylene-1-(3,4,5-trimethoxyphenyl)azetidin-2-one]",92 to 93 °C,0.958 µM,1.14 µM,0.854 µM,2.03 µM,–,–,–,–
"C=C1C(=O)N(c2cc(OC)c(OC)c(OC)c2)[C@H]1c1ccc(OC)c(OS(=O)(=O)CCN2C(=O)c3ccccc3C2=O)c1 [Compound 28, (S)-2-methoxy-5-(3-methylene-4-oxo-1-(3,4,5-trimethoxyphenyl)azetidin-2-yl)phenyl 2-(1,3-dioxoisoindolin-2-yl)ethanesulfonate]",69 to 70 °C,> 20 µM,13.3 µM,16.8 µM,> 20 µM,–,–,–,–
"C=C1C(=O)N(c2cc(OC)c(OC)c(OC)c2)[C@H]1c1ccc(OC)c(OCCCl)c1 [Compound 10, (S)-4-(3-(2-chloroethoxy)-4-methoxyphenyl)-3-methylene-1-(3,4,5-trimethoxyphenyl)azetidin-2-one]",91 to 92 °C,0.608 µM,0.864 µM,0.409 µM,0.887 µM,–,–,–,–
"C=C1C(=O)N(c2cc(OC)c(OC)c(OC)c2)[C@H]1c1ccc(OC)c(OCCCCl)c1 [Compound 11, (S)-4-(3-(3-chloropropoxy)-4-methoxyphenyl)-3-methylene-1-(3,4,5-trimethoxyphenyl)azetidin-2-one]",72 to 73 °C,4.15 µM,4.07 µM,2.18 µM,6.04 µM,–,–,–,–
"C=C1C(=O)N(c2cc(OC)c(OC)c(OC)c2)[C@H]1c1ccc(OC)c(OCc2ccccc2)c1 [Compound 47, (S)-4-(3-(benzyloxy)-4-methoxyphenyl)-3-methylene-1-(3,4,5-trimethoxyphenyl)azetidin-2-one]",133 to 134 °C,> 20 µM,> 20 µM,> 20 µM,> 20 µM,–,–,–,–
"C=C1C(=O)N(c2cc(OC)c(OC)c(OC)c2)[C@H]1c1ccc(OC)c(OC(=O)c2ccccc2)c1 [Compound 18, (S)-2-methoxy-5-(3-methylene-4-oxo-1-(3,4,5-trimethoxyphenyl)azetidin-2-yl)phenyl benzoate]",151 to 152 °C,0.637 µM,0.484 µM,0.287 µM,0.386 µM,–,–,–,–
"C=C1C(=O)N(c2ccc(OC)cc2)[C@H]1c1ccc(OC)c(O)c1 [Compound 52, (S)-1-(4-methoxyphenyl)-4-(3-hydroxy-4-methoxyphenyl)-3-methyleneazetidin-2-one]",180 to 181 °C,> 20 µM,> 20 µM,> 20 µM,> 20 µM,–,–,–,–
"C=C1C(=O)N(c2cc(OC)c(OC)c(OC)c2)[C@H]1c1ccc(OC)c(OC(=O)c2ccc([N+](=O)[O-])cc2)c1 [Compound 19, (S)-2-methoxy-5-(3-methylene-4-oxo-1-(3,4,5-trimethoxyphenyl)azetidin-2-yl)phenyl 4-nitrobenzoate]",88 to 89 °C,0.105 µM,0.084 µM,0.055 µM,0.102 µM,–,–,–,–
"C=C1C(=O)N(c2cc(OC)c(OC)c(OC)c2)[C@H]1c1ccc(OC)c(Cl)c1 [Compound 39, (S)-4-(3-chloro-4-methoxyphenyl)-3-methylene-1-(3,4,5-trimethoxyphenyl)azetidin-2-one]",119 to 120 °C,0.512 µM,0.341 µM,0.316 µM,0.371 µM,–,–,–,–
"C=C1C(=O)N(c2cc(OC)c(OC)c(OC)c2)[C@H]1c1ccc(OC)c(NC(=O)c2ccc([N+](=O)[O-])cc2)c1 [Compound 43, (S)—N-(2-methoxy-5-(3-methylene-4-oxo-1-(3,4,5-trimethoxyphenyl)azetidin-2-yl)phenyl)-4-nitrobenzamide]",234 to 235 °C,2 µM,1.43 µM,0.931 µM,1.58 µM,–,–,–,–
"COc1ccc([C@H]2/C(=C/C[Si](C)(C)C)C(=O)N2c2cc(OC)c(OC)c(OC)c2)cc1O [Compound 53, (S,Z)-4-(3-hydroxy-4-methoxyphenyl)-1-(3,4,5-trimethoxyphenyl)-3-(2-(trimethylsilyl)ethylidene)azetidin-2-one]",67 to 69 °C,> 10 µM,> 10 µM,> 10 µM,> 10 µM,–,–,–,–
"C=CC(=O)Oc1cc([C@H]2C(=C)C(=O)N2c2cc(OC)c(OC)c(OC)c2)ccc1OC [Compound 24, (S)-2-methoxy-5-(3-methylene-4-oxo-1-(3,4,5-trimethoxyphenyl)azetidin-2-yl)phenyl acrylate]",109 to 110 °C,0.565 µM,0.522 µM,0.328 µM,0.49 µM,–,–,–,–
"C=C1C(=O)N(c2cc(OC)c(OC)c(OC)c2)[C@H]1c1ccc(OC)c(OC(=O)c2cccnc2)c1 [Compound 22, (S)-2-methoxy-5-(3-methylene-4-oxo-1-(3,4,5-trimethoxyphenyl)azetidin-2-yl)phenyl nicotinate]",113 to 114 °C,0.151 µM,0.075 µM,0.112 µM,0.115 µM,–,–,–,–
"C=C1C(=O)N(c2cc(OC)c(OC)c(OC)c2)[C@H]1c1ccc(OC)c(OS(=O)(=O)CCCC)c1 [Compound 31, (S)-2-methoxy-5-(3-methylene-4-oxo-1-(3,4,5-trimethoxyphenyl)azetidin-2-yl)phenyl butane-1-sulfonate]",99 to 100 °C,7.29 µM,10.2 µM,5.32 µM,14 µM,–,–,–,–
"C#CCOc1cc([C@H]2C(=C)C(=O)N2c2cc(OC)c(OC)c(OC)c2)ccc1OC [Compound 7, (S)-4-(4-methoxy-3-(prop-2-yn-1-yloxy)phenyl)-3-methylene-1-(3,4,5-trimethoxyphenyl)azetidin-2-one]",106 to 107 °C,1.2 µM,0.841 µM,0.429 µM,1.05 µM,–,–,–,–
"C=C1C(=O)N(c2cc(OC)c(OC)c(OC)c2)[C@H]1c1ccc(OC)c(OS(N)(=O)=O)c1 [Compound 26, (S)-2-methoxy-5-(3-methylene-4-oxo-1-(3,4,5-trimethoxyphenyl)azetidin-2-yl)phenyl sulfamate]",199 to 200 °C,0.24 µM,0.177 µM,0.133 µM,0.224 µM,–,–,–,–
